Laboratory results taken from paper PMC7587962, “Evaluation of Cytotoxicity and α-Glucosidase Inhibitory Activity of Amide and Polyamino-Derivatives of Lupane Triterpenoids” (Molecules, 2020).
Like-named read-outs stand apart in the source and are kept apart here.

How the values were obtained:
[1] = tested on: 60 human tumor cell lines; assay: cells
K-562 = assay: NCI-60 SRB screen: leukemia K-562; format: cell-based, human; conditions: K-562; single dose 10 µM
MCF7 = assay: NCI-60 SRB screen: breast cancer MCF7; format: cell-based; conditions: Homo sapiens, 48 h; MCF7; single dose 10 µM; read-out: Percentage Cell Growth
MOLT-4 = assay: NCI-60 SRB screen: leukemia MOLT-4; format: cell-based; conditions: Homo sapiens, 48 h; MOLT-4; single dose 10 µM; read-out: Percentage Cell Growth
SW-620 = assay: NCI-60 SRB screen: colon cancer SW-620; format: cell-based; conditions: Homo sapiens, 48 h; SW-620; single dose 10 µM; read-out: Percentage Cell Growth
CCRF-CEM = assay: NCI-60 SRB screen: leukemia CCRF-CEM; format: cell-based; conditions: Homo sapiens, 48 h, single dose 10 µM, read-out: Percentage Cell Growth
HCT-116 = assay: NCI-60 SRB screen: colon cancer HCT-116; format: cell-based; conditions: Homo sapiens, 48 h; HCT-116; single dose 10 µM; read-out: Percentage Cell Growth
OVCAR-8 = assay: NCI-60 SRB screen: ovarian cancer OVCAR-8; format: cell-based, human; conditions: OVCAR-8; single dose 10 µM
RPMI-8226 = assay: NCI-60 SRB screen: leukemia RPMI-8226; format: cell-based; conditions: Homo sapiens, 48 h; RPMI-8226; single dose 10 µM; read-out: Percentage Cell Growth
NCI-H460 = assay: NCI-60 SRB screen: non-small cell lung cancer NCI-H460; format: cell-based; conditions: Homo sapiens, 48 h; NCI-H460; single dose 10 µM; read-out: Percentage Cell Growth
IGROV1 = assay: NCI-60 SRB screen: ovarian cancer IGROV1; format: cell-based, human; conditions: IGROV1; single dose 10 µM
SR = assay: NCI-60 SRB screen: leukemia SR; format: cell-based; conditions: Homo sapiens, 48 h, single dose 10 µM, read-out: Percentage Cell Growth
LOX IMVI = assay: NCI-60 SRB screen: melanoma LOX IMVI; format: cell-based, human; conditions: single dose 10 µM
COLO 205 = assay: NCI-60 SRB screen: colon cancer COLO 205; format: cell-based, human; conditions: COLO 205; single dose 10 µM
U251 = assay: NCI-60 SRB screen: CNS cancer U251; format: cell-based; conditions: Homo sapiens, U-251, 48 h; U251; single dose 10 µM; read-out: Percentage Cell Growth
HT29 = assay: NCI-60 SRB screen: colon cancer HT29; format: cell-based; conditions: Homo sapiens, HT-29, 48 h; HT29; single dose 10 µM; read-out: Percentage Cell Growth
KM12 = assay: NCI-60 SRB screen: colon cancer KM12; format: cell-based, human; conditions: KM12; single dose 10 µM
Yeast α-Glucosidase = assay: Yeast α-glucosidase activity assay; format: biochemical, S. cerevisiae; conditions: pH 6.8, 37 °C, p-nitrophenyl-α-D-glucopyranoside 1 mM; read-out: Yeast α-Glucosidase, IC50 ± SE
Protocol: (§1) Taken together, these considerations prompted us to evaluate a series of lupanes with amide function or polyamine chain 11, 12, 16, 18, and 22–26 for α-glucosidase inhibition. Initially, they were screened against α-glucosidase of S. cerevisiae as an accessible and high-throughput model. Confirmatory experiments were performed on isolated rough endoplasmic reticulum vesicles from rat liver, which contain neutral α-glucosidases I and II in a membrane-bound form.
In a 96-well flat transparent plate, the 0.12 U/mL enzyme solution (EC 3.2.1.20, expressed in S. cerevisiae, Sigma #G0660, St. Louis, MO, USA) was incubated with test compounds in 67 mM PBS (pH 6.8) at 37 °C for 5 min. Then, p-nitrophenyl-α-D-glucopyranoside (Sigma #N1377, St. Louis, MO, USA) was added to 1 mM final concentration and an increase in absorbance was recorded for 15 min at 405 nm wavelength with Infinite M200 PRO microplate reader (Tecan, Austria). Test compounds were dissolved in DMSO and diluted to the desired concentration in 67 mM PBS (pH 6.8) supplemented with 0.01% Tween 80 to avoid aggregation. Final DMSO concentration was <0.25% in sample wells, and it was also introduced in control and blank wells. […] Due to the absence of normal distribution of data, a Mann–Whitney U-test was used to determine statistical significance versus enzyme control using GraphPad Prism 8.0.1.

[2] = tested on: Rat Liver ER Neutral α-Glucosidase; assay: Endoplasmic reticulum α-glucosidase activity assay; format: biochemical
Text: as §1, with “Betulinic acid inhibits yeast α-glucosidase activity and interferes with N-linked glycan modifications to cell-surface intercellular adhesion molecule-1 (ICAM-1) in human lung carcinoma A549 cells in a similar manner to castanospermine, an inhibitor of endoplasmic reticulum α-glucosidases I and II [66]. […] Taken” for “Taken”
Endoplasmic reticulum was isolated from hepatocytes of decapitated male Sprague-Dawley rats, which were starved overnight and sacrificed the next morning. All experiments were approved by Volgograd regional ethic committee. The whole procedure was performed at 4 °C. In brief, a fresh tissue sample from an animal was washed twice with 10 mL of PBS to remove residual blood. The tissue was placed on a paper towel in order to absorb excess liquid and blood clots, if present. It was cut further into small pieces (1.5–2 cm) and washed once more. […] Homogenate was centrifuged at 1000× g for 10 min at 4 °C. After removal of the floating lipid layer by aspiration, supernatant was separated and centrifuged at 12,000× g for 15 min. at 4 °C. The supernatant fraction, which is the post mitochondrial fraction (PMF), was used for isolation of rough endoplasmic reticulum (RER) enriched microsomes by precipitation with 8 mM CaCl2 added dropwise. The final concentration of CaCl2 was 7 mM. Resulting sample was centrifuged at 8000 g for 10 min. at 4 °C. The supernatant was discarded, and the pellet was suspended in isotonic extraction buffer (0.3 mL of buffer for each g of original tissue). The suspension was homogenized completely to afford RER enriched microsomes. In a 96-well flat transparent plate 25 µL of the isolated RER microsomes were incubated with 50 µL of test compounds in 67 mM PBS (pH 6.8) at 37 °C for 10 min. Then, p-nitrophenyl-α-D-glucopyranoside (Sigma #N1377, St. Louis, MO, USA) was added to 1 mM final concentration and increase in absorbance was recorded for 42 min at 405 nm wavelength with Infinite M200 PRO microplate reader (Tecan, Austria). Concentration of RER microsomes was adjusted to achieve an increase in optical density of ~0.2 in control samples after 30 min. of incubation. Test compounds were prepared as described above for the yeast α-glucosidase assay.

MDA-MB-231/ATCC = assay: NCI-60 SRB screen: breast cancer MDA-MB-231/ATCC; format: cell-based; conditions: Homo sapiens, 48 h; MDA-MB-231/ATCC; single dose 10 µM; read-out: Percentage Cell Growth

Row | Compound | activity at 10 µM ([1]; read-out: Mean Growth, %) [%] | activity at 10 µM ([1]; read-out: Range of Growth, %) [%] | activity at 10 µM (HT29) [%] | IC50 (Yeast α-Glucosidase) [µM] | Rat Liver ER Neutral α-Glucosidase Inhibition, m ± SD ([2]; 10 μM) [%] | Rat Liver ER Neutral α-Glucosidase Inhibition, m ± SD ([2]; 100 μM) [%] | also measured
1 | C=C(C)[C@@H]1CC[C@]2(C(=O)NCCCC[C@@H](N)C(=O)OC)CC[C@]3(C)[C@H](CC[C@@H]4[C@@]5(C)CCC(=O)C(C)(C)[C@@H]5CC[C@]43C)[C@@H]12 [Compound 17] | 98.7 | 79.2 to 111 |  |  |  |  | 
2 | C=C(C)[C@@H]1CC[C@]2(C(=O)NCCCCCCN(CCCN)CCCN)CC[C@]3(C)[C@H](CC[C@@H]4[C@@]5(C)CC[C@H](OCCCN)C(C)(C)[C@@H]5CC[C@]43C)[C@@H]12 [Compound 19] | 63 | -39.5 to 141 | 4.21 |  |  |  | Percentage Cell Growth (K-562): 1.52%; activity at 10 µM (MCF7): 14.5%; activity at 10 µM (MOLT-4): 10.1%; activity at 10 µM (SW-620): 7.33%; activity at 10 µM (CCRF-CEM): 11.8%; activity at 10 µM (HCT-116): 12.6%; Percentage Cell Growth (OVCAR-8): −28.27%; activity at 10 µM (RPMI-8226): 29.3%; activity at 10 µM (NCI-H460): -16.2%; Percentage Cell Growth (IGROV1): 27.33%; activity at 10 µM (SR): 18.4%; Percentage Cell Growth (LOX IMVI): 5.71%; Percentage Cell Growth (COLO 205): 18.88%; activity at 10 µM (U251): -39.5%; Percentage Cell Growth (KM12): 31.48%
3 | C=C(C)[C@@H]1CC[C@]2(COCCCN)CC[C@]3(C)[C@H](CC[C@@H]4[C@@]5(C)CC[C@H](OCCCN)C(C)(C)[C@@H]5CC[C@]43C)[C@@H]12 [Compound 18] |  |  |  | 5.7 ± 1.09 | 56.64 ± 4.24 | 36.51 ± 14.90 | 
4 | C=C(C)[C@@H]1CC[C@]2(CO)CC[C@]3(C)[C@H](CC[C@@H]4[C@@]5(C)CCCNC(C)(C)[C@@H]5CC[C@]43C)[C@@H]12 [Compound 23] |  |  |  | > 100 | −1.34 ± 2.22 | 5.85 ± 8.03 | 
5 | C=C(C)[C@@H]1CC[C@]2(C(=O)NCCNCCN)CC[C@]3(C)[C@H](CC[C@@H]4[C@@]5(C)CC[C@H](O)C(C)(C)[C@@H]5CC[C@]43C)[C@@H]12 [Compound 7] | 99.2 | 53.8 to 147 |  |  |  |  | 
6 | C=C(C)[C@@H]1CC[C@]2(C(=O)NCCCCCCN(CCCN)CCCN)CC[C@]3(C)[C@H](CC[C@@H]4[C@@]5(C)CC[C@H](O)C(C)(C)[C@@H]5CC[C@]43C)[C@@H]12 [Compound 8] | 80.5 | 20.4 to 135 | 24.3 |  |  |  | activity at 10 µM (MDA-MB-231/ATCC): 20.4%
